Here are results for five compounds from PubChem BioAssay AID1259411 (Chemical Carcinogenesis Research Information System (CCRIS), 2018).

Calls of active or inactive are those of the source. No rule for the calls is given here.

This series has as its system rodent carcinogenicity bioassays, tumor incidence. Kind of series: CCRIS carcinogenicity studies. The note with it: Dose: 0, Dose: 0. In short, it runs like this: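 NCI-built, expert-reviewed records of carcinogenicity and related test outcomes (mutagenicity, tumor promotion/inhibition) compiled from published and report sources, historical span 1985-2011, not updated.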

For `Cc1c2ccccc2c(CO)c2ccc3ccccc3c12`, the carcinogen call (Species: MOUSE, Strain/Sex: B6C3F1/MALE, Route: INTRAPERITONEAL, 0.0025, 0.01, 0.03 UMOL/G IN 10 µL/G TRIOCTANOIN D 12 OF AGE (STUDY DURATION: 10 MO), 0.0025, 0.01, 0.03 UMOL/G IN 10 µL/G TRIOCTANOIN D 12 OF AGE (STUDY DURATION: 10 MO), Tumor Site: Type of Lesion: LIVER: HEPATOMA) is “active; positive”; the carcinogen call (Species: MOUSE, Strain/Sex: B6C3F1/MALE, Route: INTRAPERITONEAL, 0.0025 UMOL/G IN 10 µL TRIOCTANOIN ON D 12, 16, 20 AND 24 OF AGE (STUDY DURATION: 12 MO), Tumor Site: Type of Lesion: LIVER: HEPATOMA) was “active; positive”; the carcinogen call (Species: MOUSE, Strain/Sex: B6C3F1/MALE, Route: INTRAPERITONEAL, 0.0075, 0.015, 0.03 UMOL/G IN 10 µL/G TRIOCTANOIN ONCE ON D 12 OF AGE (STUDY DURATION: 10 MO), 0.0075, 0.015, 0.03 UMOL/G IN 10 µL/G TRIOCTANOIN ONCE ON D 12 OF AGE (STUDY DURATION: 10 MO), Tumor Site: Type of Lesion: LIVER: HEPATOMA) is “active; positive”; the carcinogen call (Species: MOUSE, Strain/Sex: B6C3F1/MALE, Route: INTRAPERITONEAL, 0.01, 0.03, 0.06, UMOL/G IN 5 µL/G DMSO ONCE ON D 12 AGE (STUDY DURATION: 10 MO), 0.01, 0.03, 0.06, UMOL/G IN 5 µL/G DMSO ONCE ON D 12 AGE (STUDY DURATION: 10 MO), Tumor Site: Type of Lesion: LIVER: HEPATOMA) is “active; positive”; the carcinogen call (Species: MOUSE, Strain/Sex: B6C3F1/MALE, Route: INTRAPERITONEAL, 0.03, 0.08, 0.25 UMOL/G IN 10 µL/G TRIOCTANOIN ONCE AT 12 D OF AGE (STUDY DURATION: 8.5 MO), 0.03, 0.08, 0.25 UMOL/G IN 10 µL/G TRIOCTANOIN ONCE AT 12 D OF AGE (STUDY DURATION: 8.5 MO), Tumor Site: Type of Lesion: LIVER: HEPATOMA) is “active; positive”; the carcinogen call (Species: MOUSE, Strain/Sex: STRAIN-A/FEMALE, Route: INTRAPERITONEAL, 0.01, 0.03, 0.06 UMOL/G IN 5 µL DMSO/G ONCE AT 4-6 WK OF AGE (STUDY DURATION: 6 MO), 0.01, 0.03, 0.06 UMOL/G IN 5 µL DMSO/G ONCE AT 4-6 WK OF AGE (STUDY DURATION: 6 MO), Tumor Site: Type of Lesion: LUNG: ADENOMA) is “active; positive”. For the same compound, the carcinogen call by setting is: (Species: RAT, Strain/Sex: SPRAGUE-DAWLEY/FEMALE, Route: SUBCUTANEOUS, 0.2 UMOL 3/WK FOR 20 DOSES (STUDY DURATION: 52 WK), Tumor Site: Type of Lesion: INJECTION SITE: SARCOMA) “active; positive”; (Species: RAT, Strain/Sex: SPRAGUE-DAWLEY/FEMALE, Route: SUBCUTANEOUS, 2 UMOL IN 0.25 ML TRIOCTANOIN INTO LEFT HIND LEG AT ABOUT 40 D OF AGE FOLLOWED BY A SECOND DOSE 6 D LATER (STUDY DURA) “inactive; negative”; (Species: RAT, Strain/Sex: SPRAGUE-DAWLEY/FEMALE, Route: SUBCUTANEOUS, 2 UMOL IN 0.25 ML TRIOCTANOIN ONCE INTO LEFT HIND LEG AT ABOUT 40 D OF AGE (STUDY DURATION: 16 MO)) “inactive; negative”.

Regarding `C[C@](N)(Cc1ccc(O)c(O)c1)C(=O)O`, the carcinogen call runs as follows: (Species: MOUSE, Strain/Sex: B6C3F1/FEMALE, Route: ORAL, 6300, 12500 PPM IN FEED FOR 103 WK (STUDY DURATION: 104 WK), 6300, 12500 PPM IN FEED FOR 103 WK (STUDY DURATION: 104 WK)) “inactive; negative”; (Species: MOUSE, Strain/Sex: B6C3F1/MALE, Route: ORAL, 6300, 12500 PPM IN FEED FOR 103 WK (STUDY DURATION: 104 WK), 6300, 12500 PPM IN FEED FOR 103 WK (STUDY DURATION: 104 WK), Tumor Site: Type of Lesion: KIDNEY: RENAL TUBULAR CELL ADENOMA OR ADENOCARCINOMA) “equivocal”; (Species: RAT, Strain/Sex: F344/FEMALE, Route: ORAL, 3100, 6300 PPM IN FEED FOR 103 WK (STUDY DURATION: 104 WK), 3100, 6300 PPM IN FEED FOR 103 WK (STUDY DURATION: 104 WK)) “inactive; negative”; (Species: RAT, Strain/Sex: F344/MALE, Route: ORAL, 3100, 6300 PPM IN FEED FOR 103 WK (STUDY DURATION: 104 WK), 3100, 6300 PPM IN FEED FOR 103 WK (STUDY DURATION: 104 WK)) “inactive; negative”.

For the compound `COc1cc(/C=C/C(=O)O[C@H]2CC[C@]34C[C@]35CC[C@]3(C)[C@@H]([C@H](C)CCC=C(C)C)CC[C@@]3(C)[C@@H]5CC[C@H]4C2(C)C)ccc1O`, the carcinogen call (Species: MOUSE, Strain/Sex: B6C3F1/FEMALE, Route: ORAL, 200, 600, 2000 MG/KG/BW A DAY IN DIET FOR 78 WK (STUDY DURATION: 79 WK), 200, 600, 2000 MG/KG/BW A DAY IN DIET FOR 78 WK (STUDY DURATION: 79 WK)) was “inactive; negative”; the carcinogen call (Species: MOUSE, Strain/Sex: B6C3F1/MALE, Route: ORAL, 200, 600, 2000 MG/KG/BW A DAY IN DIET FOR 78 WK (STUDY DURATION: 79 WK), 200, 600, 2000 MG/KG/BW A DAY IN DIET FOR 78 WK (STUDY DURATION: 79 WK)) is “inactive; negative”; the carcinogen call (Species: RAT, Strain/Sex: F344/FEMALE, Route: ORAL, 200, 600, 2000 MG/KG/BW/D IN DIET FOR 2 YR (STUDY DURATION: 105 WK), 200, 600, 2000 MG/KG/BW/D IN DIET FOR 2 YR (STUDY DURATION: 105 WK)) was “inactive; negative”; the carcinogen call (Species: RAT, Strain/Sex: F344/MALE, Route: ORAL, 200, 600, 2000 MG/KG/BW/D IN DIET FOR 2 YR (STUDY DURATION: 105 WK), 200, 600, 2000 MG/KG/BW/D IN DIET FOR 2 YR (STUDY DURATION: 105 WK)) is “inactive; negative”.

As for `Nc1cc([N+](=O)[O-])ccc1O`, the carcinogen call is “inactive; negative” (Species: MOUSE, Strain/Sex: B6C3F1/FEMALE, Route: GAVAGE, 125, 250 MG/KG IN CORN OIL 5D/WK FOR 103 WK (STUDY DURATION: 105 WK), 125, 250 MG/KG IN CORN OIL 5D/WK FOR 103 WK (STUDY DURATION: 105 WK)); “inactive; negative” (Species: MOUSE, Strain/Sex: B6C3F1/MALE, Route: GAVAGE, 125, 250 MG/KG IN CORN OIL 5D/WK FOR 103 WK (STUDY DURATION: 105 WK), 125, 250 MG/KG IN CORN OIL 5D/WK FOR 103 WK (STUDY DURATION: 105 WK)); “inactive; negative” (Species: RAT, Strain/Sex: F344/FEMALE, Route: GAVAGE, 125, 250 MG/KG IN CORN OIL 5D/WK FOR 103 WK (STUDY DURATION: 105 WK), 125, 250 MG/KG IN CORN OIL 5D/WK FOR 103 WK (STUDY DURATION: 105 WK)); “active; positive” (Species: RAT, Strain/Sex: F344/MALE, Route: GAVAGE, 125, 250 MG/KG IN CORN OIL 5D/WK FOR 103 WK (STUDY DURATION: 105 WK), 125, 250 MG/KG IN CORN OIL 5D/WK FOR 103 WK (STUDY DURATION: 105 WK), Tumor Site: Type of Lesion: PREPUTIAL GLAND: ADENOMA OR CARCINOMA).

For the compound `O=S(O)S(=O)(=O)O`, the carcinogen call (Species: RAT, Strain/Sex: WISTAR/FEMALE, Route: ORAL, 0.125, 0.25, 0.5, 1, 2% IN DIET FOR 104 WK (STUDY DURATION: 104 WK), 0.125, 0.25, 0.5, 1, 2% IN DIET FOR 104 WK (STUDY DURATION: 104 WK)) was “inactive; negative”; the carcinogen call (Species: RAT, Strain/Sex: WISTAR/FEMALE, Route: ORAL, 0.125, 0.25, 0.5, 1, 2% IN DIET FOR 104 WK TO OFFSPRING OF RATS ADMINISTERED THE SAME DOSES IN THEIR DIETS (STUDY DUR, 0.125, 0.25, 0.5, 1, 2% IN DIET FOR 104 WK TO OFFSPRING OF RATS ADMINISTERED THE SAME DOSES IN THEIR DIETS (STUDY DUR) is “inactive; negative”; the carcinogen call (Species: RAT, Strain/Sex: WISTAR/MALE, Route: ORAL, 0.125, 0.25, 0.5, 1, 2% IN DIET FOR 104 WK (STUDY DURATION: 104 WK), 0.125, 0.25, 0.5, 1, 2% IN DIET FOR 104 WK (STUDY DURATION: 104 WK)) was “inactive; negative”; the carcinogen call (Species: RAT, Strain/Sex: WISTAR/MALE, Route: ORAL, 0.125, 0.25, 0.5, 1, 2% IN DIET FOR 104 WK TO OFFSPRING OF RATS ADMINISTERED THE SAME DOSES IN THEIR DIETS (STUDY DUR, 0.125, 0.25, 0.5, 1, 2% IN DIET FOR 104 WK TO OFFSPRING OF RATS ADMINISTERED THE SAME DOSES IN THEIR DIETS (STUDY DUR) is “inactive; negative”.
